# Measurements as given in patent US9662327B2 (AGIOS PHARMACEUTICALS, INC, priority 2011, dated 2017).
# pIC50: −log10 of the molar value.
# Molecular target: IDH1 R132H (Homo sapiens (Human), UniProt O75874, R132H)
# Assay: Assays for IDH1 R132H Inhibitors (NADPH/aKG, resazurin detection)
# Assay type: biochemical
# Conditions: IDH1 R132H enzyme, Table 2; read-out: IDHR132H Activity
# Summary of the method: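 Substrate mix held 8 uM NADPH plus 2 mM aKG; buffer was 20 mM Tris pH 7.5 with 150 mM NaCl, 10 mM MgCl2, 0.03% BSA. After 50 min room-temperature reaction, NADPH remaining was detected with 30 μM resazurin mix over 5 min.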
# Sequence of IDH1 R132H (O75874 whole entry R132H): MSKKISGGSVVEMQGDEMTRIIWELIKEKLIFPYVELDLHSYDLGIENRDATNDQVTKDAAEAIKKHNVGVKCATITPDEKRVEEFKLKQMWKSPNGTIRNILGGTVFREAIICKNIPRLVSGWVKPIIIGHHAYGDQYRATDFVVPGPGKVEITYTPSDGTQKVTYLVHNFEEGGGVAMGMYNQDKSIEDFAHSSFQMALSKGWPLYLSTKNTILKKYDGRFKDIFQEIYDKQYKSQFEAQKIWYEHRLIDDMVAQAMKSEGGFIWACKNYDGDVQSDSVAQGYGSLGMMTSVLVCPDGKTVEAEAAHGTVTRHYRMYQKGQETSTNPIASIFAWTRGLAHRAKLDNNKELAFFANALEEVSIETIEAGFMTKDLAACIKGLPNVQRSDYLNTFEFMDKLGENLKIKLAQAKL
row,SMILES,pIC50
1,"N#Cc1c(N2CCN(C(=O)C3CC3)CC2)nc(C2CCCCC2)c2c1CCOC2 [Compound 141, 8-cyclohexyl-6-(4-(cyclopropanecarbonyl)piperazin-1-yl)-3,4-dihydro-1H-pyrano[3,4-c]pyridine-5-carbonitrile]",5.00 to 6.00
2,"COCCC(=O)N1C[C@H](C)N(c2nc(C3CC3)c3c(c2C#N)CC(C)(C)OC3)C[C@H]1C [Compound 310, 8-cyclopropyl-6-((2S,5R)-4-(3-methoxypropanoyl)-2,5-dimethylpiperazin-1-yl)-3,3-dimethyl-3,4-dihydro-1H-pyrano[3,4-c]pyridine-5-carbonitrile]",5.00 to 6.00
3,Cc1ccc(-c2nc(N3CC(C)N(C(=O)c4ccco4)C(C)C3)c(C#N)c3c2COCC3)cc1 (stereo not drawn) [Compound 112],5.00 to 6.00
4,"CCCOC(=O)N1CCN(c2nc(C(C)C)c3c(c2C#N)CC(C)(C)OC3)CC1C(=O)OCC (stereo not drawn) [Compound 364, 2-ethyl 1-propyl 4-(5-cyano-8-isopropyl-3,3-dimethyl-3,4-dihydro-1H-pyrano[3,4-c]pyridin-6-yl)piperazine-1,2-dicarboxylate]",5.00 to 6.00
5,CC(C)[C@@H]1CN(c2nc(C3CC3)c3c(c2C#N)CC(C)(C)OC3)CCN1C(=O)Nc1ccc(F)cc1 [Compound 283],5.00 to 6.00
6,"CCC1CN(c2nc(C3CCCCC3)c3c(c2C#N)CCOC3)CCN1C(=O)c1ccoc1 (stereo not drawn) [Compound 175, 8-cyclohexyl-6-(3-ethyl-4-(furan-3-carbonyl)piperazin-1-yl)-3,4-dihydro-1H-pyrano[3,4-c]pyridine-5-carbonitrile]",5.00 to 6.00
7,"CC(C)c1nc(N2CCN(C(=O)c3ccoc3)[C@H](C)C2)c(C#N)c2c1COCC2 [Compound 140, (R)-6-(4-(furan-3-carbonyl)-3-methylpiperazin-1-yl)-8-isopropyl-3,4-dihydro-1H-pyrano[3,4-c]pyridine-5-carbonitrile]",5.00 to 6.00
8,"COCCC(=O)N1CCN(c2nc(C3CC3)c3c(c2C#N)CC(C)(C)OC3)CC1COC (stereo not drawn) [Compound 403, 8-cyclopropyl-6-(3-(methoxymethyl)-4-(3-methoxypropanoyl)piperazin-1-yl)-3,3-dimethyl-3,4-dihydro-1H-pyrano[3,4-c]pyridine-5-carbonitrile]",5.00 to 6.00
9,"CCOC(=O)C1CN(c2nc(C3CCCCC3)c3c(c2C#N)CCOC3)CCN1C(=O)c1ccoc1C (stereo not drawn) [Compound 277, ethyl 4-(5-cyano-8-cyclohexyl-3,4-dihydro-1H-pyrano[3,4-c]pyridin-6-yl)-1-(2-methylfuran-3-carbonyl)piperazine-2-carboxylate]",5.00 to 6.00
10,"CC(C)c1nc(N2CCN(C(=O)c3ccc(Cl)cc3Cl)[C@H](C)C2)c(C#N)c2c1COC(C)(C)C2 [Compound 166, (R)-6-(4-(2,4-dichlorobenzoyl)-3-methylpiperazin-1-yl)-8-isopropyl-3,3-dimethyl-3,4-dihydro-1H-pyrano[3,4-c]pyridine-5-carbonitrile]",5.00 to 6.00
11,"CC(C)[C@@H]1CN(c2nc(C3CC3)c3c(c2C#N)CC(C)(C)OC3)CCN1C(=O)Cn1ccnc1 [Compound 374, (R)-6-(4-(2-(1H-imidazol-1-yl)acetyl)-3-isopropylpiperazin-1-yl)-8-cyclopropyl-3,3-dimethyl-3,4-dihydro-1H-pyrano[3,4-c]pyridine-5-carbonitrile]",5.00 to 6.00
12,"C[C@@H]1CN(c2nc(C3CCCCC3)c3c(c2C#N)CC(C)(C)OC3)CCN1C(=O)Cc1ccccc1 [Compound 152, (R)-8-cyclohexyl-3,3-dimethyl-6-(3-methyl-4-(2-phenylacetyl)piperazin-1-yl)-3,4-dihydro-1H-pyrano[3,4-c]pyridine-5-carbonitrile]",5.00 to 6.00
13,CC(C)NC(=O)N1CCN(c2nc(C3CC3)c3c(c2C#N)CC(C)(C)OC3)C[C@H]1C(C)C [Compound 287],5.00 to 6.00
14,"Cc1cncc(C(=O)N2CCN(c3nc(C4CC4)c4c(c3C#N)CC(C)(C)OC4)C[C@H]2C(C)C)c1 [Compound 245, (R)-8-cyclopropyl-6-(3-isopropyl-4-(5-methylnicotinoyl)piperazin-1-yl)-3,3-dimethyl-3,4-dihydro-1H-pyrano[3,4-c]pyridine-5-carbonitrile]",5.00 to 6.00
15,"N#Cc1c(N2CCN(C(=O)c3cccc4[nH]ccc34)CC2)nc(C2CCCCC2)c2c1CCOC2 [Compound 119, 6-(4-(1H-indole-4-carbonyl)piperazin-1-yl)-8-cyclohexyl-3,4-dihydro-1H-pyrano[3,4-c]pyridine-5-carbonitrile]",5.00 to 6.00
16,CC(C)[C@@H]1CN(c2nc(C3CC3)c3c(c2C#N)CC(C)(C)OC3)CCN1C(=O)Cc1cccnc1 [Compound 265],> 6.30
17,"Cc1ncoc1C(=O)N1CCN(c2nc(C(C)C)c3c(c2C#N)CC(C)(C)OC3)C[C@H]1C(C)C [Compound 213, (R)-8-isopropyl-6-(3-isopropyl-4-(4-methyloxazole-5-carbonyl)piperazin-1-yl)-3,3-dimethyl-3,4-dihydro-1H-pyrano[3,4-c]pyridine-5-carbonitrile]",5.00 to 6.00
18,"CC(C)[C@@H]1CN(c2nc(C3CC3)c3c(c2C#N)CC(C)(C)OC3)CCN1C(=O)OCC1CC1 [Compound 370, (R)-cyclopropylmethyl 4-(5-cyano-8-cyclopropyl-3,3-dimethyl-3,4-dihydro-1H-pyrano[3,4-c]pyridine-6-yl)-2-isopropylpiperazine-1-carboxylate]",5.00 to 6.00
19,"C[C@@H]1CN(c2nc(C3CCCCC3)c3c(c2C#N)CCOC3)CCN1C(=O)Nc1ccccc1F [Compound 300, (R)-4-(5-cyano-8-cyclohexyl-3,4-dihydro-1H-pyrano[3,4-c]pyridin-6-yl)-N-(2-fluorophenyl)-2-methylpiperazine-1-carboxamide]",5.00 to 6.00
20,"CC[C@@H]1CN(c2nc(C(C)C)c3c(c2C#N)CC(C)(C)OC3)CCN1C(=O)c1ccoc1 [Compound 205, (R)-6-(3-ethyl-4-(furan-3-carbonyl)piperazin-1-yl)-8-isopropyl-3,3-dimethyl-3,4-dihydro-1H-pyrano[3,4-c]pyridine-5-carbonitrile]",> 6.30
21,"Cc1nc2ccccn2c1C(=O)N1CCN(c2nc(C3CCCCC3)c3c(c2C#N)CCOC3)C[C@H]1C [Compound 190, (R)-8-cyclohexyl-6-(3-methyl-4-(2-methylimidazo[1,2-a]pyridine-3-carbonyl)piperazin-1-yl)-3,4-dihydro-1H-pyrano[3,4-c]pyridine-5-carbonitrile]",5.00 to 6.00
22,"CC(C)c1nc(N2CCN(C(=O)Cc3ccccc3)CC2)c(C#N)c2c1COC(C)(C)C2 [Compound 144, 8-isopropyl-3,3-dimethyl-6-(4-(2-phenylacetyl)piperazin-1-yl)-3,4-dihydro-1H-pyrano[3,4-c]pyridine-5-carbonitrile]",5.00 to 6.00
23,"CC1CN(c2nc(C3CCCCC3)c3c(c2C#N)CCOC3)CCN1C(=O)c1ccc2[nH]ccc2c1 (stereo not drawn) [Compound 134, 6-(4-(1H-indole-5-carbonyl)-3-methylpiperazin-1-yl)-8-cyclohexyl-3,4-dihydro-1H-pyrano[3,4-c]pyridine-5-carbonitrile]",5.00 to 6.00
24,"CC(C)c1nc(N2CCN(C(=O)c3ccco3)C(C)C2)c(C#N)c2c1CCCC2 (stereo not drawn) [Compound 125, 3-(4-(furan-2-carbonyl)-3-methylpiperazin-1-yl)-1-isopropyl-5,6,7,8-tetrahydroisoquinoline-4-carbonitrile]",5.00 to 6.00
25,"COc1cccc(CC(=O)N2CCN(c3nc(C4CCCCC4)c4c(c3C#N)CCOC4)C[C@H]2C)c1 [Compound 189, (R)-8-cyclohexyl-6-(4-(2-(3-methoxyphenyl)acetyl)-3-methylpiperazin-1-yl)-3,4-dihydro-1H-pyrano[3,4-c]pyridine-5-carbonitrile]",5.00 to 6.00
26,CC(C)[C@@H]1CN(c2nc(C3CC3)c3c(c2C#N)CC(C)(C)OC3)CCN1C(=O)c1cccnc1 [Compound 271],5.00 to 6.00
27,"CC(C)[C@@H]1CN(c2nc(C3CC3)c3c(c2C#N)CC(C)(C)OC3)CCN1C(=O)CC1CC1 [Compound 382, (R)-8-cyclopropyl-6-(4-(2-cyclopropylacetyl)-3-isopropylpiperazin-1-yl)-3,3-dimethyl-3,4-dihydro-1H-pyrano[3,4-c]pyridine-5-carbonitrile]",> 6.30
28,"N#Cc1c(N2CCN(C(=O)c3ccoc3)CC2)nc(C2CCCCC2)c2c1CCOC2 [Compound 120, 8-cyclohexyl-6-(4-(furan-3-carbonyl)piperazin-1-yl)-3,4-dihydro-1H-pyrano[3,4-c]pyridine-5-carbonitrile]",5.00 to 6.00
29,"CC[C@@H]1CN(c2nc(C(C)C)c3c(c2C#N)CC(C)(C)OC3)CCN1C(=O)Cc1cccs1 [Compound 206, (R)-6-(3-ethyl-4-(2-(thiophen-2-yl)acetyl)piperazin-1-yl)-8-isopropyl-3,3-dimethyl-3,4-dihydro-1H-pyrano[3,4-c]pyridine-5-carbonitrile]",> 6.30
30,"CC(C)c1nc(N2CCN(C(=O)c3ccco3)[C@H](C(C)C)C2)c(C#N)c2c1COC(C)(C)C2 [Compound 171, (R)-6-(4-(furan-2-carbonyl)-3-isopropylpiperazin-1-yl)-8-isopropyl-3,3-dimethyl-3,4-dihydro-1H-pyrano[3,4-c]pyridine-5-carbonitrile]",> 6.30

# Same assay, conditions: IDH1 R132H enzyme, Table 3; read-out: R132H IC50
row,SMILES,pIC50
1,"COCCC(=O)N1CCN(c2nc(C3CC3)c3c(c2C#N)CCN(C(C)=O)C3)C[C@H]1C1CC1 [Compound 478, (R)-7-acetyl-1-cyclopropyl-3-(3-cyclopropyl-4-(3-methoxypropanoyl)piperazin-1-yl)-5,6,7,8-tetrahydro-2,7-naphthyridine-4-carbonitrile]",> 6.30
2,"COCCC(=O)N1CCN(c2nc(C3CC3)c3c(c2C#N)CCN(CCO)C3)C[C@H]1C1CC1 [Compound 484, (R)-1-cyclopropyl-3-(3-cyclopropyl-4-(3-methoxypropanoyl)piperazin-1-yl)-7-(2-hydroxyethyl)-5,6,7,8-tetrahydro-2,7-naphthyridine-4-carbonitrile]",6.00 to 6.30
3,"CCOC(=O)[C@@H]1CN(c2nc(C3CC3)c3c(c2C#N)CC(C)(C)OC3)CCN1C(C)=O [Compound 468, (S)-ethyl 1-acetyl-4-(5-cyano-8-cyclopropyl-3,3-dimethyl-3,4-dihydro-1H-pyrano[3,4-c]pyridin-6-yl)piperazine-2-carboxylate]",6.00 to 6.30
